Measurements: PubChem BioAssay AID1224920 (Broad Institute, 2016)
“And” between values parts separate entries of the source, which are not always exact repeats. Equal entries are not always repeated.

Test system: Clostridium difficile clinical isolate growth, OD600, 24 h
Assay: growth modulation of Clostridium difficile isolate – OD600, 9-point, retest, dose response (AID 1224920);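 also: inhibitors lower culture turbidity so OD600 falls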

Row | SMILES | IC50
1 | C(=C\c1ccc(C2[C@@H]3CN(Cc4nccs4)C[C@H]2N3)cc1)/c1ccccc1 (stereo partly specified) | 16.7 µM and 67.5 µM
2 | O=C(Nc1ccc(C(F)(F)F)cc1)N1[C@@H]2CNC[C@H]1C2c1ccc(-c2ccc(F)cc2)cc1 (stereo partly specified) | 13.9 µM
3 | COc1ccccc1CN1C[C@@H]2N[C@H](C1)C2c1ccc(-c2ccccc2)cc1 (stereo partly specified) | 13.3 µM
4 | Cc1cccc(-c2ccc([C@H]3[C@H](CO)N4CCCCN(CCC(F)(F)F)C[C@@H]34)cc2)c1 | 68.9 µM
5 | COc1cccc(-c2ccc(C3[C@@H]4CN(S(=O)(=O)Cc5ccccc5)C[C@H]3N4)cc2)c1 (stereo partly specified) | 52.6 µM
6 | Cc1cccc(S(=O)(=O)N2C[C@@H]3N[C@H](C2)C3c2ccc(-c3ccccc3C)cc2)c1 (stereo partly specified) | 12.5 µM
7 | O=C(Nc1ccc(Cl)cc1)N1[C@@H]2CNC[C@H]1C2c1ccc(-c2ccccc2)cc1 (stereo partly specified) | 60.4 µM
8 | COc1ccc(NC(=O)N2CCCCN3[C@H](CO)[C@@H](c4ccc(C#Cc5ccccc5)cc4)[C@H]3C2)cc1 | 25.7 µM
9 | Cc1ccc(S(=O)(=O)N2[C@@H]3CNC[C@H]2C3c2ccc(-c3ccccc3C)cc2)cc1 (stereo partly specified) | 30.6 µM
10 | COc1cc(CN2C[C@@H]3N[C@H](C2)C3c2ccc(/C=C/c3ccccc3)cc2)cc(OC)c1 (stereo partly specified) | 9.5 µM
11 | O=C(C[C@H]1CC[C@H]2[C@@H](COC[C@@H](O)CN2C(=O)Nc2cc(Cl)cc(Cl)c2)O1)N1CCOCC1 | 29.1 µM
12 | O=C(c1ccc(F)cc1)N1CC(=O)N2[C@@H](CO)[C@H](c3ccc(C#CCC4CCCC4)cc3)[C@@H]2C1 | 15.7 µM
13 | Cc1ccc(-c2ccc([C@H]3[C@H](CO)N4CCCCN(C(=O)Nc5cccc(F)c5)C[C@@H]34)cc2)cc1 | 11.2 µM
14 | O=C(C[C@@H]1CC[C@@H]2[C@H](COC[C@H](O)CN2C(=O)Nc2ccc(Cl)c(Cl)c2)O1)NC1CCC1 | 20.3 µM
15 | FC(F)(F)c1cccc(CN2[C@@H]3CNC[C@H]2[C@@H]3c2ccc(-c3cccnc3)cc2)c1 | 103 µM
16 | OC[C@@H]1Nc2ccc(C#Cc3cccc(F)c3)cc2[C@H]2NCC[C@@H]12 | 38.3 µM
17 | O=S(=O)(c1ccccc1)N1C[C@@H]2N[C@H](C1)C2c1ccc(-c2ccc(F)cc2)cc1 (stereo partly specified) | 51.4 µM
18 | O=C(Nc1ccc(F)cc1)N1[C@@H]2CNC[C@H]1C2c1ccc(/C=C/c2ccccc2)cc1 (stereo partly specified) | 13.8 µM
19 | C/C=C/c1ccc(C2[C@H]3CNC[C@@H]2N3Cc2cccc(F)c2)cc1 (stereo partly specified) | 31.1 µM
20 | COc1cc(CN2[C@@H]3CNC[C@H]2C3c2ccc(/C=C/c3ccccc3)cc2)cc(OC)c1 (stereo partly specified) | 12.2 µM
21 | O=C(C1CCC1)N1C[C@@H]2N[C@H](C1)C2c1ccc(/C=C/c2ccccc2)cc1 (stereo partly specified) | 74.4 µM
22 | O=C(Nc1ccc(C(F)(F)F)cc1)N1[C@@H]2CNC[C@H]1C2c1ccc(-c2ccccc2)cc1 (stereo partly specified) | 18.2 µM and 28.6 µM

Row | SMILES | IC50
23 | Cc1ccc(S(=O)(=O)N2[C@@H]3CNC[C@H]2C3c2ccc(-c3cccc(F)c3)cc2)cc1 (stereo partly specified) | 52.3 µM
24 | Cc1ccccc1-c1ccc([C@@H]2[C@H](CO)N3CCCCN(C(=O)Nc4ccc(F)cc4)C[C@@H]23)cc1 | 13.9 µM
25 | O=C(Nc1ccc(C(F)(F)F)cc1)N1[C@@H]2CNC[C@H]1C2c1ccc(-c2ccccc2F)cc1 (stereo partly specified) | 10.3 µM and 83.8 µM
26 | N#Cc1ccc(-c2ccc3c(c2)[C@@H]2[C@@H](CCN2Cc2ccc4c(c2)OCO4)[C@@H](CO)N3)cc1 | 32.3 µM
27 | O=C(C[C@H]1CC[C@H]2[C@@H](COC[C@@H](O)CN2C(=O)Nc2ccc(Cl)c(Cl)c2)O1)NC1CCC1 | 19.4 µM
28 | CCNC(=O)C[C@H]1CC[C@H]2[C@@H](COC[C@@H](O)CN2C(=O)Nc2ccc(C(F)(F)F)cc2)O1 | 8.27 µM
29 | Cc1ccccc1-c1ccc(C2[C@@H]3CN(C(=O)Nc4cccc(F)c4)C[C@H]2N3)cc1 (stereo partly specified) | 39 µM
30 | Cc1ccccc1-c1ccc(C2[C@@H]3CN(S(=O)(=O)Cc4ccccc4)C[C@H]2N3)cc1 (stereo partly specified) | 33.8 µM
31 | CCCNC(=O)C[C@@H]1CC[C@@H]2[C@H](COC[C@H](O)CN2C(=O)Nc2ccc(Cl)c(Cl)c2)O1 | 12 µM
32 | O=C(C1CCCCC1)N1CC2(C1)[C@H](c1ccccc1)[C@H](CO)N2Cc1ccc(Cl)cc1 | 33.7 µM
33 | O=C(c1ccc(F)cc1)N1CC(=O)N2[C@H](CO)[C@H](c3ccc(C#CCC4CCCC4)cc3)[C@H]2C1 | 81.6 µM
34 | O=C(C1CC1)N1C[C@@H]2N[C@H](C1)C2c1ccc(/C=C/c2ccccc2)cc1 (stereo partly specified) | 70.3 µM
35 | COc1ccccc1CN1CC[C@@H]2[C@H]1c1cc(C#Cc3ccccc3)ccc1N[C@@H]2CO | 26.2 µM
36 | OC[C@H]1Nc2ccc(-c3ccc(F)cc3)cc2[C@@H]2[C@H]1CCN2Cc1ccc(F)cc1 | 26.8 µM
37 | Cc1ccccc1-c1ccc([C@@H]2[C@H](CO)N3CCCCN(C(=O)Nc4cccc(F)c4)C[C@@H]23)cc1 | 14.7 µM
38 | O=C(Nc1ccccc1)N1C[C@@H]2N[C@H](C1)C2c1ccc(-c2ccccc2)cc1 (stereo partly specified) | 59.7 µM
39 | O=C(c1ccc2c(c1)OCO2)N1C[C@@H]2N[C@H](C1)C2c1ccc(/C=C/c2ccccc2)cc1 (stereo partly specified) | 12.4 µM
40 | Cc1ccccc1-c1ccc(C2[C@@H]3CN(C(=O)NC4CCCCC4)C[C@H]2N3)cc1 (stereo partly specified) | 57.7 µM
41 | Fc1ccccc1-c1ccc(C2[C@@H]3CN(Cc4ccccc4)C[C@H]2N3)cc1 (stereo partly specified) | 4.68 µM and 7.81 µM
42 | Cc1ccccc1-c1ccc(C2[C@@H]3CN(S(=O)(=O)c4ccccc4C)C[C@H]2N3)cc1 (stereo partly specified) | 27.5 µM
43 | CCCNC(=O)C[C@@H]1CC[C@H]2[C@@H](COC[C@@H](O)CN2C(=O)Nc2ccc(Cl)c(Cl)c2)O1 | 8.45 µM
44 | O=C(C[C@H]1CC[C@H]2[C@@H](COC[C@H](O)CN2C(=O)Nc2ccc(C(F)(F)F)cc2)O1)NCC1CCCCC1 | 7.15 µM

Row | SMILES | IC50
45 | Cc1cccc(-c2ccc(C3[C@@H]4CN(Cc5cccc(F)c5)C[C@H]3N4)cc2)c1 (stereo partly specified) | 5.89 µM and 8.61 µM
46 | COc1ccc(-c2ccc(C3[C@@H]4CN(Cc5ccccn5)C[C@H]3N4)cc2)cc1 (stereo partly specified) | 70.1 µM
47 | COc1ccccc1C#Cc1ccc2c(c1)[C@H]1[C@H](CCN1C(=O)c1ccncc1)[C@H](CO)N2 | 63.5 µM
48 | Fc1cccc(-c2ccc(C3[C@@H]4CN(Cc5ccccc5F)C[C@H]3N4)cc2)c1 (stereo partly specified) | 6.44 µM and 6.35 µM
49 | O=C(C1CCCCC1)N1CC[C@@H]2[C@H]1c1cc(C#Cc3ccc(F)cc3)ccc1N[C@@H]2CO | 45.2 µM
50 | COc1ccc(S(=O)(=O)N2CCCCN3[C@H](CO)[C@H](c4ccc(C5=CCCCC5)cc4)[C@H]3C2)cc1 | 29.5 µM
51 | Cc1ccc(-c2ccc(C3[C@H]4CNC[C@@H]3N4S(=O)(=O)c3ccccc3C)cc2)cc1 (stereo partly specified) | 27.6 µM
52 | O=C(Nc1ccccc1)N1CCCCN2[C@@H](CO)[C@@H](c3ccc(-c4ccccc4F)cc3)[C@@H]2C1 | 27.9 µM
53 | O=C(NC[C@@H]1N[C@@H](CO)[C@H]1c1ccc(C2=CCCCC2)cc1)c1cccc(F)c1 | 11.2 µM
54 | N#Cc1ccc(-c2ccc(C3[C@@H]4CN(Cc5ccccc5F)C[C@H]3N4)cc2)cc1 (stereo partly specified) | 35.8 µM and 26.1 µM
55 | Cc1ccc(-c2ccc([C@@H]3[C@H](CO)N4CCCCN(C(=O)Nc5ccccc5)C[C@@H]34)cc2)cc1 | 20.2 µM
56 | O=C(C1CCCCC1)N1C[C@@H]2N[C@H](C1)C2c1ccc(-c2cccc(F)c2)cc1 (stereo partly specified) | 67.8 µM
57 | Cc1ccc(-c2ccc([C@H]3[C@@H](CO)N4CCCCN(C(=O)Nc5cccc(F)c5)C[C@H]34)cc2)cc1 | 4.44 µM
58 | COc1ccc(-c2ccc(C3[C@@H]4CN(Cc5cc(OC)cc(OC)c5)C[C@H]3N4)cc2)cc1 (stereo partly specified) | 6.55 µM and 25.8 µM
59 | COc1ccc(-c2ccc(C3[C@@H]4CN(Cc5cccc(OC)c5)C[C@H]3N4)cc2)cc1 (stereo partly specified) | 38.5 µM and 16.2 µM
60 | O=C(Nc1ccc(F)cc1)N1C[C@@H]2N[C@H](C1)C2c1ccc(-c2ccccc2F)cc1 (stereo partly specified) | 36.7 µM and 57.5 µM
61 | C/C=C/c1ccc(C2[C@H]3CNC[C@@H]2N3C(=O)Nc2ccc(C(F)(F)F)cc2)cc1 (stereo partly specified) | 12 µM
62 | Cc1cccc(-c2ccc(C3[C@@H]4CN(C(=O)C5CCCC5)C[C@H]3N4)cc2)c1 (stereo partly specified) | 62.9 µM
63 | COc1ccc(NC(=O)N2CCCCN3[C@H](CO)[C@H](c4ccc(C#Cc5ccccc5)cc4)[C@H]3C2)cc1 | 27.5 µM
64 | O=C(Nc1ccc(F)cc1)N1CCCCN2[C@@H](CO)[C@@H](c3ccc(-c4ccccc4F)cc3)[C@@H]2C1 | 35 µM
65 | C/C=C/c1ccc(C2[C@@H]3CN(Cc4cccc(F)c4)C[C@H]2N3)cc1 (stereo partly specified) | 14.3 µM and 27.3 µM
66 | CCCC#Cc1ccc([C@H]2[C@@H](CO)N3CCCCN(S(=O)(=O)Cc4ccccc4)C[C@H]23)cc1 | 34.2 µM

Row | SMILES | IC50
67 | C/C=C/c1ccc(C2[C@@H]3CN(C(=O)Nc4ccc(C(F)(F)F)cc4)C[C@H]2N3)cc1 (stereo partly specified) | 13.7 µM and 10.6 µM
68 | OC[C@@H]1[C@H](c2ccc(/C=C/c3ccccc3)cc2)[C@H]2CN(CCC(F)(F)F)CCCCN12 | 28.7 µM
69 | COc1cc(CN2[C@@H]3CNC[C@H]2C3c2ccc(-c3ccccc3C)cc2)cc(OC)c1 (stereo partly specified) | 18.8 µM
70 | Cc1ccc(-c2ccc([C@H]3[C@@H](CO)N4CCCCN(C(=O)Nc5ccccc5)C[C@H]34)cc2)cc1 | 37.7 µM
71 | O=C(Nc1ccc2c(c1)OCO2)N1C[C@@H]2N[C@H](C1)C2c1ccc(C=Cc2ccccc2)cc1 (stereo partly specified) | 28.3 µM
72 | N#Cc1ccc(-c2ccc([C@@H]3[C@H]4CNC[C@@H]3N4Cc3ccc4c(c3)OCO4)cc2)cc1 | 102 µM
73 | COc1ccc(S(=O)(=O)N2CCCCN3[C@@H](CO)[C@@H](c4ccc(C#CCC(C)C)cc4)[C@@H]3C2)cc1 | 13.6 µM
74 | COc1cccc(CN2C[C@@H]3N[C@H](C2)C3c2ccc(-c3ccccc3F)cc2)c1 (stereo partly specified) | 9.26 µM and 6.5 µM
75 | O=C(C[C@H]1CC[C@@H]2[C@H](COC[C@@H](O)CN2C(=O)Nc2ccc(Cl)c(Cl)c2)O1)NCc1ccncc1 | 8.71 µM
76 | COc1ccccc1NC(=O)N1C[C@@H]2N[C@H](C1)C2c1ccc(/C=C/c2ccccc2)cc1 (stereo partly specified) | 10.7 µM
77 | O=C(c1cccc(F)c1)N1CCCCN2[C@H](CO)[C@H](c3ccc(/C=C/c4ccccc4)cc3)[C@H]2C1 | 140 µM
78 | O=C(Nc1ccc(F)cc1)N1CCCCN2[C@H](CO)[C@H](c3ccc(-c4ccccc4F)cc3)[C@H]2C1 | 55.9 µM
79 | Cc1ccccc1-c1ccc(C2[C@@H]3CN(Cc4cocn4)C[C@H]2N3)cc1 (stereo partly specified) | 45.5 µM
80 | Fc1ccc(F)c(CN2[C@@H]3CNC[C@H]2C3c2ccc(-c3ccccc3)cc2)c1 (stereo partly specified) | 44.8 µM
81 | Cc1ccc(-c2ccc(C3[C@H]4CNC[C@@H]3N4C(=O)Nc3ccc(F)cc3)cc2)cc1 (stereo partly specified) | 64.4 µM
82 | OC[C@H]1[C@H](c2ccc(C#CC3CCCC3)cc2)[C@@H]2CN(CCC(F)(F)F)CCCCN12 | 35 µM
83 | CCNC(=O)C[C@@H]1CC[C@@H]2[C@H](COC[C@H](O)CN2C(=O)Nc2ccc(C(F)(F)F)cc2)O1 | 16.1 µM
84 | COc1cccc(S(=O)(=O)N2C[C@@H]3N[C@H](C2)C3c2ccc(/C=C/c3ccccc3)cc2)c1 (stereo partly specified) | 12.7 µM
85 | C/C=C/c1ccc(C2[C@H]3CNC[C@@H]2N3C(=O)Nc2cccc(Cl)c2)cc1 (stereo partly specified) | 54.4 µM
86 | Fc1ccc(-c2ccc(C3[C@@H]4CN(Cc5cccc(F)c5)C[C@H]3N4)cc2)cc1 (stereo partly specified) | 5.47 µM and 20.4 µM
